Test results reported in US20260365670A1, “EGFR INHIBITORS AND USES THEREOF” (DIZAL (JIANGSU) PHARMACEUTICAL CO., LTD., priority 2022, published 2026).
Where two headings read alike, the source gives them in different places.

Assays:
A-431 = assay: Cell proliferation GI50, A-431 cells (Table 6); type: cell-based
Experimental: [Worded in the source for another cell line; this cell line is reported under the same test.] Ba/F3 cells expressing EGFR mutations were seeded in 384-well plates at 5000 cells/well in RPMI1640 medium containing […]. PC-9 at 500 cells/well was seeded into 384-well plates in RPMI1640 medium with 10% FBS. After overnight incubation, the assay plates were dosed with compounds at a series of concentrations. Alongside dosing the assay plates, the day 0 plate was processed using CellTiter-Glo® Luminescent Cell Viability Assay (Promega) to measure the number of viable cells (G0). The assay plates were further incubated for 72 hours and the number of viable cells (G3) was measured. The percentage of proliferation was calculated as: […]=100×(G3 value of sample well−G0 value)/(G3 value of DMSO control−G0 value). The concentration of compound producing 50% proliferation inhibition (GI50) was further calculated in best-fit curves using XLFit software. N/A=not available.

PC-9 = assay: Cell proliferation assay, PC-9 cells (CellTiter-Glo, 72 hours); type: cell-based; settings: PC9 cells, CellTiter-Glo, read-out: PC9 GI50
Outline: (§1)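 In RPMI1640 medium (PC-9 with 10% FBS), each cell line was seeded at its own density: Ba/F3 5000 and PC-9 500 per well. A compound series was added the next day, with a time-zero viability plate read in parallel. Percent proliferation was subtracted for G0 and referenced to DMSO, and GI50 was derived by curve fitting.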

[1] = system: Ba/F3 cells expressing EGFR mutations; assay: Cell proliferation assay, Ba/F3 cells expressing EGFR mutations (CellTiter-Glo, 72 hours); type: cell-based; settings: CellTiter-Glo
Outline: as §1

[2] = biological target: T1, EGFR[T790M/C797S/d746-750] (Homo sapiens, UniProt P00533, C797S/DEL746-750/T790M); assay: Inhibition of EGFR[T790M/C797S/d746-750] biochemical enzymatic activity (HTRF); settings: EGFR T790M-C797S-Del19, 1 mM ATP, 1 h, room temperature, read-out: IC50 (nM) @T790M - C797S - Del19
T1 construct: purchased Carna Bio
Outline: (§2)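 Phosphorylation of TK Substrate-biotin (1 μM) was measured at 1 mM ATP over a 1 h room-temperature incubation with serially varied compound. Detection was by HTRF ratio and analysis by 4PL fit to IC50.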

EGFR Exon19Del = biological target: T2, EGFR Exon19Del (Homo sapiens, UniProt P00533, DEL746-750); assay: Inhibition of EGFR Exon19Del biochemical enzymatic activity (HTRF); settings: EGFR Del19, 1 mM ATP, 1 h, room temperature, read-out: IC50 @Del19
T2 construct: purchased Carna Bio
Outline: as §2

EGFR (d746-750 C797S) = biological target: T3, EGFR (d746-750 C797S) (Homo sapiens, UniProt P00533, C797S/DEL746-750); assay: Inhibition of EGFR (d746-750 C797S) biochemical enzymatic activity (HTRF); settings: EGFR Del19-C797S, 1 mM ATP, 1 h, room temperature, read-out: IC50 (nM) @Del19-C797S
T3 construct: purchased signalchem
T3 sequence (P00533 with tags, fused parts or gaps DEL746-750/C797S limits assumed): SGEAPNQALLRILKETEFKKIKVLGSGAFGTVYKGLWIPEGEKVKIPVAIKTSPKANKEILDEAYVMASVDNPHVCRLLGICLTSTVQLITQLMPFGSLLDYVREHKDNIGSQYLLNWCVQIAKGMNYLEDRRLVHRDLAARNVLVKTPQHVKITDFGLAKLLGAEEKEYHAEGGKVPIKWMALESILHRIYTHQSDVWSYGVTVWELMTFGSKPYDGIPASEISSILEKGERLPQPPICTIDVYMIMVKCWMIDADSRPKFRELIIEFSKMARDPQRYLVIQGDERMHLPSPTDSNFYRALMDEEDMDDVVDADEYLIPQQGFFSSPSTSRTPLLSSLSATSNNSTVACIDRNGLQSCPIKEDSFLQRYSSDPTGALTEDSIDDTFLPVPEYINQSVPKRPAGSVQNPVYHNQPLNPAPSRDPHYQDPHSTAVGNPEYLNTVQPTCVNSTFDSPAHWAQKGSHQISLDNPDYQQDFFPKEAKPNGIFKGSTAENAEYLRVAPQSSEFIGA
Outline: as §2

EGFR (C797S L858R) = biological target: T4, EGFR (C797S L858R) (Homo sapiens, UniProt P00533, C797S/L858R); assay: Inhibition of EGFR (C797S L858R) biochemical enzymatic activity (HTRF); settings: EGFR L858-C797S, 1 mM ATP, 1 h, room temperature, read-out: IC50 (nM) @L858-C797S
T4 construct: purchased signalchem
T4 sequence (P00533 25-1210 C797S/L858R): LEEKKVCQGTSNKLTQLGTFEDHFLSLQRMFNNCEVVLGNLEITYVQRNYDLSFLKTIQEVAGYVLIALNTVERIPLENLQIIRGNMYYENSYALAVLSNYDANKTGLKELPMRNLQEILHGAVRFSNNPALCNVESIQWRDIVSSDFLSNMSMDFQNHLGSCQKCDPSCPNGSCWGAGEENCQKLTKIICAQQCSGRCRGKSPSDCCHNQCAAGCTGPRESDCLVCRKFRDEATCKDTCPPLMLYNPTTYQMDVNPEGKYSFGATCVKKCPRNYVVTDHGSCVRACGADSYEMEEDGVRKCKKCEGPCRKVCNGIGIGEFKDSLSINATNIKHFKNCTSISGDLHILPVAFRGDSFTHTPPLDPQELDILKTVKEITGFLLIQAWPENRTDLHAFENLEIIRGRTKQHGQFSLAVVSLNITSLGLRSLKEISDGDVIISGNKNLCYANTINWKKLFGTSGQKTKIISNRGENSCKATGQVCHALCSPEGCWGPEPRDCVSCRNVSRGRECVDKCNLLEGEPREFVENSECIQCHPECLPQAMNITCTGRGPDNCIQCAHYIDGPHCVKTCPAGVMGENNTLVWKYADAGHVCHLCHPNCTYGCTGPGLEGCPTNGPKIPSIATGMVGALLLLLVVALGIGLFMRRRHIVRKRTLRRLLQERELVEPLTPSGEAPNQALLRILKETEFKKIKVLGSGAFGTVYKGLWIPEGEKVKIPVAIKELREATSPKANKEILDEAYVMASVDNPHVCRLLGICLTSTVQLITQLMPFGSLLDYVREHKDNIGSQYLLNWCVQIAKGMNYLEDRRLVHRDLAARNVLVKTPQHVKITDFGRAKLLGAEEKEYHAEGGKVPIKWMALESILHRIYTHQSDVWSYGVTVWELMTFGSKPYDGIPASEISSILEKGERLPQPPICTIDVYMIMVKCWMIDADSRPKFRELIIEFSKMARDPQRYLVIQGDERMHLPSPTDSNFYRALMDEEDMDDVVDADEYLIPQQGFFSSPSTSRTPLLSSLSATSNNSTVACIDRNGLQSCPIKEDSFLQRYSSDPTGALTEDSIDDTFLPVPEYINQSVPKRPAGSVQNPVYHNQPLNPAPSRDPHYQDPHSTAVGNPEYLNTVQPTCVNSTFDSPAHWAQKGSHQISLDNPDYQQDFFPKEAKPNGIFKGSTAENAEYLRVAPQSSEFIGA
Outline: as §2

EGFR L858R/T790M = biological target: T5, EGFR L858R/T790M (Homo sapiens, UniProt P00533, L858R/T790M); assay: Inhibition of EGFR L858R/T790M biochemical enzymatic activity (HTRF); settings: EGFR L858R-T790M, 1 mM ATP, 1 h, room temperature, read-out: IC50 (nM) @L858R-T790M
T5 construct: purchased Carna Bio
T5 sequence (P00533 25-1210 T790M/L858R): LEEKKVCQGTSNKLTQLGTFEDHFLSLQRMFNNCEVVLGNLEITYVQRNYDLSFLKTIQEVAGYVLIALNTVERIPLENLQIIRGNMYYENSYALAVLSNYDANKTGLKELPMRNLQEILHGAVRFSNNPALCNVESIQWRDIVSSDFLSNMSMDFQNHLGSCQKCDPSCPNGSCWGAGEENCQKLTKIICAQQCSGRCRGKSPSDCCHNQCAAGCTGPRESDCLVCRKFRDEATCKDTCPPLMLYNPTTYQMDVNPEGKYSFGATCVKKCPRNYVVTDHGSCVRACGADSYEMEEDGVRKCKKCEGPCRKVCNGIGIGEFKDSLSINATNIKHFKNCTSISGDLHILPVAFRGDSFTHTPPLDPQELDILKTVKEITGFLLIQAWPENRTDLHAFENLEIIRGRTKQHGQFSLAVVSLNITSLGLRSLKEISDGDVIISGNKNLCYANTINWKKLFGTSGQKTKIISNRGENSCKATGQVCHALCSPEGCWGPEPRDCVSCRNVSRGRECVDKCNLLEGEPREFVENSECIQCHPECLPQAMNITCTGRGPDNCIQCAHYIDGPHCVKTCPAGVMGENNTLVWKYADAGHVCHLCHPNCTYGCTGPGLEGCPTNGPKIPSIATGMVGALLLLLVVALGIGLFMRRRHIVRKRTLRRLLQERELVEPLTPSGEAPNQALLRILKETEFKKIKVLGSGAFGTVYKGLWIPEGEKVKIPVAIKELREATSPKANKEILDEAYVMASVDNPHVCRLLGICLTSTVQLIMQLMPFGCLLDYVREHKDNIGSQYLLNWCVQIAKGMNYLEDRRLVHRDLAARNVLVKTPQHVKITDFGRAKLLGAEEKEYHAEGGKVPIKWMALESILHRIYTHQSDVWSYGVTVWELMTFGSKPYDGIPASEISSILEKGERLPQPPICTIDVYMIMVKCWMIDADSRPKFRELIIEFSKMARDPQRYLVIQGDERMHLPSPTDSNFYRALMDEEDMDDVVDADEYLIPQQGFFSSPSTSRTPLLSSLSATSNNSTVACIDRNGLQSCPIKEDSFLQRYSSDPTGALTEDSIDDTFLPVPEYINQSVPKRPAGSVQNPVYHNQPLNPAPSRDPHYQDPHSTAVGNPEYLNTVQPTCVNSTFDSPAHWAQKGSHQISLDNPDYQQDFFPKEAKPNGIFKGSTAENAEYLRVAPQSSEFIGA
Outline: as §2

EGFR Exon19Del/T790M = biological target: T6, EGFR Exon19Del/T790M (Homo sapiens, UniProt P00533, DEL746-750/T790M); assay: Inhibition of EGFR Exon19Del/T790M biochemical enzymatic activity (HTRF); settings: EGFR Del19-T790M, 1 mM ATP, 1 h, room temperature, read-out: IC50 (nM) @Del19-T790M
T6 construct: purchased Carna Bio
T6 sequence (P00533 with tags, fused parts or gaps DEL746-750/T790M limits assumed): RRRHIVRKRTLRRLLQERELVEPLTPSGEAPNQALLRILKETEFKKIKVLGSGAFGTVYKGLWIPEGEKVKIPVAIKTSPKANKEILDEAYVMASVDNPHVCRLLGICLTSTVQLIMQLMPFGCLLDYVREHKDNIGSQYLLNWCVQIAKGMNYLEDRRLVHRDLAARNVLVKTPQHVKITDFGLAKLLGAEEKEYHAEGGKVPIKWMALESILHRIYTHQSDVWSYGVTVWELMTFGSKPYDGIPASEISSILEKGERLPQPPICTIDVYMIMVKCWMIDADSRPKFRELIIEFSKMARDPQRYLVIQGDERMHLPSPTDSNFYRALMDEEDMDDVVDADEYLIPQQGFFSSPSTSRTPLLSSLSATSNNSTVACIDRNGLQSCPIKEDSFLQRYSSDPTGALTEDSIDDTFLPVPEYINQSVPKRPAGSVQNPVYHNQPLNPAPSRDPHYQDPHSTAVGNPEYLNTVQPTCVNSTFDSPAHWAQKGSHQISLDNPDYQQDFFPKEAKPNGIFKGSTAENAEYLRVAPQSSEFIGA
Outline: as §2

EGFR L858R = biological target: T7, EGFR L858R (Homo sapiens, UniProt P00533, L858R); assay: Inhibition of EGFR L858R biochemical enzymatic activity (HTRF); settings: 1 mM ATP, 1 h, room temperature, read-out: IC50 (nM) @L858R
T7 construct: purchased Carna Bio
T7 sequence (P00533 25-1210 L858R): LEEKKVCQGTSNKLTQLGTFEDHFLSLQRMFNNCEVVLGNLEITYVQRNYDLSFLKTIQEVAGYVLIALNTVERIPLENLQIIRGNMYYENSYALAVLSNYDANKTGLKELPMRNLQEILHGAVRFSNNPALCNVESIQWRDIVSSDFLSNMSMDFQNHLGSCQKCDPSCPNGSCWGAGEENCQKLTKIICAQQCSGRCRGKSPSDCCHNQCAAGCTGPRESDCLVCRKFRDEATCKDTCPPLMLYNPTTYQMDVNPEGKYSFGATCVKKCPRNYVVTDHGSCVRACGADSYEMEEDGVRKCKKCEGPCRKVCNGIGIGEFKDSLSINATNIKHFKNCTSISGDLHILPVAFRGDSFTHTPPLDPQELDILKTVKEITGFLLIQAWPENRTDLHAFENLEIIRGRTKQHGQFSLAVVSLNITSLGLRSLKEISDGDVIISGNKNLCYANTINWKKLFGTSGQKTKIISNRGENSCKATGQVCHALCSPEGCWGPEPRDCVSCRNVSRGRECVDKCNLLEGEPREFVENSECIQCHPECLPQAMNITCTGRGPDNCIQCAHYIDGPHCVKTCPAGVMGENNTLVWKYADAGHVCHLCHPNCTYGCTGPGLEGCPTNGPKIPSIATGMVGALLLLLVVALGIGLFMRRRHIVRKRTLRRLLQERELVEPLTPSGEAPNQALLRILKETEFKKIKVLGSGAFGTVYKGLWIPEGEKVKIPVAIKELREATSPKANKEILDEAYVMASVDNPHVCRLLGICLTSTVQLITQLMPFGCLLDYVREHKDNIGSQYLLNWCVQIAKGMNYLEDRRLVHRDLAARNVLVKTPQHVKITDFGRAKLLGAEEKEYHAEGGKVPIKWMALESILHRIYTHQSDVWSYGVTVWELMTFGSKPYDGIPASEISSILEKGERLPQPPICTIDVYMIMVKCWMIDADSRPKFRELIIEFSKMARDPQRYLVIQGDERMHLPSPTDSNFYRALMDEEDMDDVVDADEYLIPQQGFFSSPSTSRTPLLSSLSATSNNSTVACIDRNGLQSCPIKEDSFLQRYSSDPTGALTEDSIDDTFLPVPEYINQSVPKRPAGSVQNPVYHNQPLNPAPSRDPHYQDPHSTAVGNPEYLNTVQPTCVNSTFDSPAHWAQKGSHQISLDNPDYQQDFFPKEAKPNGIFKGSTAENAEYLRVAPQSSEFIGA
Outline: as §2

EGFR wild type = biological target: T8, EGFR wild type (Homo sapiens, UniProt P00533); assay: Inhibition of EGFR wild type biochemical enzymatic activity (HTRF); settings: EGFR WT, 1 mM ATP, 1 h, room temperature, read-out: IC50 (nM) @WT
T8 construct: purchased Carna Bio
Outline: as §2

EGFR[T790M/C797S/L858R] = biological target: T9, EGFR[T790M/C797S/L858R] (Homo sapiens, UniProt P00533, C797S/L858R/T790M); assay: Inhibition of EGFR[T790M/C797S/L858R] biochemical enzymatic activity (HTRF); settings: EGFR T790M-C797S-L858R, 1 mM ATP, 1 h, room temperature, read-out: IC50 (nM) @T790M- C797S - L858R
T9 construct: purchased Carna Bio
Outline: as §2

[3] = BaF3 cells, EGFR DEL19-C797S, read-out: DEL19-C797S/BaF3 GI50
[4] = BaF3 cells, EGFR DEL19-T790-C797S, read-out: DEL19-T790-C797S/BaF3 GI50
[5] = BaF3 cells, EGFR L858R, read-out: L858R/BaF3 GI50
[6] = BaF3 cells, EGFR L858R-C797S, read-out: L858R-C797S/BaF3 GI50
[7] = BaF3 cells, EGFR L858R-T790-C797S, read-out: L858R-T790-C797S/BaF3 GI50
[8] = BaF3 cells, EGFR L858R-T790M, read-out: L858R-T790M/BaF3 GI50
[9] = EGFR DEL19-T790M, read-out: DEL19-T790M GI50

Row | GI50 (A-431; A-431 cells) | GI50 (PC-9) | GI50 [1, 3] | GI50 [1, 4] | GI50 [1, 5] | GI50 [1, 6] | GI50 [1, 7] | GI50 [1, 8] | GI50 [1, 9] | further results | SMILES
1 | 2200 nM | 710 nM | 209 nM | 452 nM | 945 nM | 561 nM | 656 nM | 1970 nM | 652 nM |  | CN(C)C1CN(c2ccc3nc4n(c3c2)C23CCC(CN(CCOc5c(cnn5C)-c5cc(cn(C)c5=O)C(=O)N4)C2)C3)C1 (single isomer, unassigned) [Example A65A]
2 | 7120 nM | 1320 nM | 393 nM | 1350 nM | 2150 nM | 1200 nM | 2380 nM | 1050 nM | 1400 nM |  | Cn1ncc2c1OCCN1CC3CCC(C3)(C1)n1c(nc3ccc(N4CCOCC4)cc31)NC(=O)c1cc-2c(=O)n(C)c1 (single isomer, unassigned) [Example A62A, 15,21-Dimethyl-5-(morpholin-4-yl)-23-oxa-2,9,11,15,20,21,26-heptaazaheptacyclo[24.4.1.1^{1,28}.1^{13,17}.0^{2,10}.0^{3,8}.0^{18,22}]tritriaconta-3,5,7,9,13,17(33),18(22),19-octaene-12,16-dione]
3 |  |  |  |  |  |  |  |  |  | GI50 (A-431; Homo sapiens, A-431, A-431 cells): 790 nM; GI50 (PC-9; Homo sapiens, PC-9, 72 h): 35 nM; GI50 ([1]; Mus musculus, BaF3, 72 h, BaF3 cells, EGFR DEL19-C797S, read-out: DEL19-C797S/BaF3 GI50): 2.3 nM; GI50 ([1]; Mus musculus, BaF3, 72 h, BaF3 cells, EGFR DEL19-T790-C797S, read-out: DEL19-T790-C797S/BaF3 GI50): 3.4 nM; GI50 ([1]; Mus musculus, BaF3, 72 h, BaF3 cells, EGFR L858R, read-out: L858R/BaF3 GI50): 25 nM; GI50 ([1]; Mus musculus, BaF3, 72 h, BaF3 cells, EGFR L858R-C797S, read-out: L858R-C797S/BaF3 GI50): 10 nM; GI50 ([1]; Mus musculus, BaF3, 72 h, BaF3 cells, EGFR L858R-T790-C797S, read-out: L858R-T790-C797S/BaF3 GI50): 13 nM; GI50 ([1]; Mus musculus, BaF3, 72 h, BaF3 cells, EGFR L858R-T790M, read-out: L858R-T790M/BaF3 GI50): 30 nM | C[C@@H]1CCCOc2c(cnn2C)-c2cc(cn(C)c2=O)C(=O)Nc2nc3ccc(N4CC5CC4CN5C)cc3n2C1 (stereo partly shown) [Example A31]
4 | 1800 nM | 1940 nM | 1090 nM | 3940 nM | 715 nM | 1480 nM | 634 nM | 2710 nM | 2100 nM |  | Cn1ncc2c1OCCN1CC3CCC(C3)(C1)n1c(nc3ccc(N4CCC(N5CC(F)C5)C4)cc31)NC(=O)c1cc-2c(=O)n(C)c1 (single isomer, unassigned) [Example A94A2, 5-[3-(3-Fluoroazetidin-1-yl)pyrrolidin-1-yl]-15,21-dimethyl-23-oxa-2,9,11,15,20,21,26-heptaazaheptacyclo[24.4.1.1^{1,28}.1^{13,17}.0^{2,10}.0^{3,8}.0^{18,22}]tritriaconta-3,5,7,9,13,17(33),18(22),19-octaene-12,16-dione]
5 |  | 989 nM | 50 nM | 120 nM | 181 nM | 244 nM | 264 nM | 367 nM | 123 nM | IC50 [2]: > 5000 nM; IC50 (EGFR Exon19Del): 689 nM; IC50 (EGFR (d746-750 C797S)): 599 nM; IC50 (EGFR (C797S L858R)): 2820 nM; IC50 (EGFR L858R/T790M): > 5000 nM; IC50 (EGFR Exon19Del/T790M): > 5000 nM; IC50 (EGFR L858R): 2120 nM; IC50 (EGFR wild type): > 5000 nM; IC50 (EGFR[T790M/C797S/L858R]): > 5000 nM | CN1CCOC2(C1)CN(c1ccc3nc4n(c3c1)C13CCC(CN(CCOc5c(cnn5C)-c5cc(cn(C)c5=O)C(=O)N4)C1)C3)C2 (single isomer, unassigned) [Example A86A]
